US9416142B2, “Griseofulvin derivatives” (PIERRE FABRE MEDICAMENT, priority 2012, dated 2016)

Columns and labels:
Type in all cases: cell-based
[1] = tested on: HCC1937 (primary ductal breast carcinoma cell line); test: Cytotoxic activity, cell proliferation (ATPLite) on HCC1937 line; conditions: Homo sapiens, 48 hours after treatment
Experimental: (§1) Culture of Lines and Measurement of Cell Viability:
(§2) The lines NIE115 (ATCC, CRL2263), MDA-MB-231 (ATCC, HTB26) and HSC-1 (Health Science Research Resources Bank, JCRB1015) were cultured in DMEM medium (Dulbecco's modified Eagle medium) supplemented with 2 mM of L-Glutamine (Sigma, G7513) and 10% foetal calf serum (Hyclone, SH30109.03) or 20% for the HSC-1 cells. The HCC-1937 (ATCC, CRL2336) and A549 (ATCC, CCL185) lines were cultured in RPMI medium (Roswell Park Memorial Institute medium) supplemented with 10% foetal calf serum and 2 mM of L-Glutamine. Finally, the SCC114 line (DSMZ, ACC662) was cultured in MEM medium (Minimum Essential Medium Eagle) supplemented with 10% foetal calf serum and 2 mM of L-Glutamine. Initially, in 96-well plates (Perkin Elmer, 6005668), the cells were seeded in their respective culture media with 750 cells per well for NIE115; 1000 cells per well for SCC114 and A549; 2000 cells per well for HCC-1937 and HSC-1; 2500 cells per well for MDA-MB-231. Cascade dilution of each compound was performed in dimethylsulfoxide (DMSO) (Sigma, D8418) using 10 mM stock solutions in 100% DMSO. Each of the dilutions was added to the cells 24 hours after seeding. Under these conditions the final solvent concentration was 0.1% DMSO. Reading of cell proliferation was conducted 72 hours after addition of products with the ATPLite kit (Perkin Elmer, 6016947) and following the manufacturer's directions except in the case of the HCC-1937 line for which this reading was carried out 48 hours after treatment. Analysis of proliferation results was performed by comparing with conditions in which solely the vehicle was added to the cells. The dose-response curves obtained were analysed using Prism 4.03 software (GraphPad Software Inc.) to determine the concentration of each compound allowing 50% inhibition of cell proliferation (IC50). As examples, the cytotoxic properties of some compounds of the invention evaluated on the lines A549 (lung cancer cell line), MDA-MB-231 (mammary adenocarcinoma cell line), NIE115 (mouse brain neuroblastoma cell line), HCC-1937 1 (primary ductal breast carcinoma cell line), HSC-1 (cutaneous squamous carcinoma cell line) and SCC114 (oral squamous carcinoma cell line) are reported in Table 1, as compared with griseofulvin used as control product. The concentration values are expressed in micromolar units (μM).
The activity of the compounds of the invention on the […] line was compared with that of known cytotoxics (Epotilone B and Vinflunine).

[2] = tested on: SCC114 (oral squamous carcinoma cell line); test: Cytotoxic activity, cell proliferation (ATPLite) on SCC114 line; conditions: 50% inhibition of cell proliferation, 72 hours after addition
Experimental: as §1, §2

[3] = tested on: N1E-115 (mouse brain neuroblastoma cell line); test: Cytotoxic activity, cell proliferation (ATPLite) on N1E-115 line; conditions: 50% inhibition of cell proliferation, 72 hours after addition
Experimental: as §1
as §2, with “Analysis of proliferation results was performed by comparing with conditions in which solely the vehicle was added to the cells. The dose-response curves obtained were analysed using Prism 4.03 software (GraphPad Software Inc.) to determine the concentration of each compound allowing 50% inhibition of cell proliferation (IC50).” left out, “The concentration values are expressed in micromolar units (μM).” left out

[4] = tested on: MDA-MB-231 (mammary adenocarcinoma cell line); test: Cytotoxic activity, cell proliferation (ATPLite) on MDA-MB-231 line; conditions: Homo sapiens, 50% inhibition of cell proliferation, 72 hours after addition
Experimental: as §1
as §2, with “Analysis of proliferation results was performed by comparing with conditions in which solely the vehicle was added to the cells. The dose-response curves obtained were analysed using Prism 4.03 software (GraphPad Software Inc.) to determine the concentration of each compound allowing 50% inhibition of cell proliferation (IC50).” left out, “The concentration values are expressed in micromolar units (μM).” left out

[5] = tested on: A549 (lung cancer cell line); test: Cytotoxic activity, cell proliferation (ATPLite) on A549 line; conditions: Homo sapiens, 50% inhibition of cell proliferation, 72 hours after addition
Experimental: as §1
as §2, with “Analysis of proliferation results was performed by comparing with conditions in which solely the vehicle was added to the cells. The dose-response curves obtained were analysed using Prism 4.03 software (GraphPad Software Inc.) to determine the concentration of each compound allowing 50% inhibition of cell proliferation (IC50).” left out, “The concentration values are expressed in micromolar units (μM).” left out

[6] = tested on: HSC-1 (cutaneous squamous carcinoma cell line); test: Cytotoxic activity, cell proliferation (ATPLite) on HSC-1 line; conditions: 50% inhibition of cell proliferation, 72 hours after addition
Experimental: as §1
The lines NIE115 (ATCC, CRL2263), MDA-MB-231 (ATCC, HTB26) and HSC-1 (Health Science Research Resources Bank, JCRB1015) were cultured in DMEM medium (Dulbecco's modified Eagle medium) supplemented with 2 mM of L-Glutamine (Sigma, G7513) and 10% foetal calf serum (Hyclone, SH30109.03) or 20% for the HSC-1 cells. The HCC-1937 (ATCC, CRL2336) and A549 (ATCC, CCL185) lines were cultured in RPMI medium (Roswell Park Memorial Institute medium) supplemented with 10% foetal calf serum and 2 mM of L-Glutamine. […] Reading of cell proliferation was conducted 72 hours after addition of products with the ATPLite kit (Perkin Elmer, 6016947) and following the manufacturer's directions except in the case of the HCC-1937 line for which this reading was carried out 48 hours after treatment. […] As examples, the cytotoxic properties of some compounds of the invention evaluated on the lines A549 (lung cancer cell line), MDA-MB-231 (mammary adenocarcinoma cell line), NIE115 (mouse brain neuroblastoma cell line), HCC-1937 1 (primary ductal breast carcinoma cell line), HSC-1 (cutaneous squamous carcinoma cell line) and SCC114 (oral squamous carcinoma cell line) are reported in Table 1, as compared with griseofulvin used as control product. […]

[7] = Table 2, comparison with known cytotoxics and 2′-SR7 compounds
[8] = Table 1, 50% inhibition of cell proliferation

SMILES	IC50 [1, 7] [µM]	IC50 [1, 8] [µM]	IC50 [2] [µM]	other results
COc1cc(OC)c2c(c1Cl)O[C@]1(C2=O)C(SCCN(C)C)=CC(=O)C[C@H]1C (racemic) [B, reference compound]	> 10			
COc1cc(OC)c2c(c1Cl)OC1(C2=O)C(SCc2ccccc2)=CC(=O)C[C@H]1C (some centres unmarked) [A, reference compound]	> 10			
COc1cc(OC)c2c(c1Cl)O[C@@]1(C=C([S+]([O-])c3ccccc3)C(=O)C[C@H]1C)C2=O (some centres unmarked) [Compound 95]		0.43	0.25	IC50 [3]: 1 µM; IC50 [4]: 0.54 µM; IC50 [5]: 0.25 µM
COc1cc(OC)c2c(c1Cl)O[C@@]1(C=C(S(=O)(=O)Cc3ccccc3)C(=O)C[C@H]1C)C2=O [Compound 96, (1′S,6′R)-3′-(benzylsulfonyl)-7-chloro-4,6-dimethoxy-6′-methyl-3H-spiro[benzofuran-2,1′-cyclohex[2]ene]-3,4′-dione]		0.92		
COc1cc(OC)c2c(c1Cl)O[C@@]1(C=C([S+]([O-])Cc3ccccc3)C(=O)C[C@H]1C)C2=O (stereo partly drawn) [Compound 97, (1′S,6′R)-3′-(benzylsulfinyl)-7-chloro-4,6-dimethoxy-6′-methyl-3H-spiro[benzofuran-2,1′-cyclohex[2]ene]-3,4′-dione]			0.021	
COc1cc(OC)c2c(c1Cl)O[C@@]1(C=C(S(=O)(=O)c3ccccc3)C(=O)C[C@H]1C)C2=O [Compound 98, (1′S,6′R)-7-chloro-4,6-dimethoxy-6′-methyl-3′-(phenylsulfonyl)-3H-spiro[benzofuran-2,1′-cyclohex[2]ene]-3,4′-dione]		0.7	0.41	
COc1cc(OC)c2c(c1Cl)O[C@]1(C2=O)C(S(=O)(=O)Cc2ccccc2)=CC(=O)C[C@H]1C [Compound 145, (1′R,6′R)-2′-(benzylsulfonyl)-7-chloro-4,6-dimethoxy-6′-methyl-3H-spiro[benzofuran-2,1′-cyclohex[2]ene]-3,4′-dione]		1.4	0.385	IC50 [3]: 3 µM; IC50 [4]: 2 µM; IC50 [5]: 1.5 µM
COc1cc(OC)c2c(c1Cl)O[C@]1(C2=O)C(S(=O)(=O)CCN(C)C)=CC(=O)C[C@H]1C [Compound 146, (1′R,6′R)-7-chloro-2′-(2-(dimethylamino)ethylsulfonyl)-4,6-dimethoxy-6′-methyl-3H-spiro[benzofuran-2,1′-cyclohex[2]ene]-3,4′-dione]		5.9		
COc1cc(OC)c2c(c1Cl)O[C@]1(C2=O)C(S(=O)(=O)c2ccccc2)=CC(=O)C[C@H]1C [Compound 147, (1′R,6′R)-7-chloro-4,6-dimethoxy-6′-methyl-2′-(phenylsulfonyl)-3H-spiro[benzofuran-2,1′-cyclohex[2]ene]-3,4′-dione]		1.6		
C/C(=C\c1csc(C)n1)[C@@H]1C[C@@H]2O[C@]2(C)CCC[C@H](C)[C@H](O)[C@@H](C)C(=O)C(C)(C)[C@@H](O)CC(=O)O1 [Epotilone B, reference compound]	> 10			
COC1=CC(=O)C[C@@H](C)[C@]12Oc1c(Cl)c(OC)cc(OC)c1C2=O [Griseofulvin]		> 10	6.4	IC50 [6]: > 10 µM; IC50 [3]: > 10 µM; IC50 [4]: > 10 µM; IC50 [5]: > 10 µM
CC[C@]12C=CCN3CC[C@@]4(c5cc([C@@]6(C(=O)OC)C[C@@H]7C[C@@H](C(C)(F)F)CN(Cc8c6[nH]c6ccccc86)C7)c(OC)cc5N(C)[C@H]4[C@@](O)(C(=O)OC)[C@@H]1OC(C)=O)[C@@H]32 [Vinflunine, reference compound]	> 10			
